US9274100B2, “Method for optical measuring variations of cell membrane conductance” (OSPEDALE SAN RAFFAELE S.R.L., priority 2009, dated 2016)

Columns and labels:
HeLa cells [1] = test: Optical detection of changes in plasma membrane conductance induced by streptolysin-O (fast-VSD, electric current pulses, internal control); type: cell-based; conditions: increasing streptolysin-O concentration (50, 100 and 150 units), hyperpolarising and depolarising responses
Experimental: (§1) Before the experiment, cells were washed with a Krebs-Ringer's solution buffered with HEPES (KRH; in mM: 150 NaCl, 5 KCl, 1.2 MgSO4, 1.2 KH2PO4, 2 CaCl2, 10 glucose, and 10 HEPES, pH 7.4) and incubated with […] di-4-ANEPPS, a fast-VSD (Invitrogen).
(§2) Conductance changes were monitored by measuring the change in fluorescence induced by electric current pulses, quantified as the difference between the mean of plateau values (either positive or negative, depending on the type of stimulus and geometry of the cell) and the mean of pre-stimulation values divided by the mean of pre-stimulation values, ΔF %. As detailed above, normalisation for the values prevailing before stimulation provided a correction for dye bleaching during the experiment, so that fluorescence changes produced by additional stimuli could be compared. […]
(§3) The responsivity to the molecule active on membrane permeability was determined according to two different protocols: • Estimation of conductance with internal control (responses, before and after exposure to the experimental treatment, measured on the same pixels). […]
(§4) Afterward, membrane potential changes evoked by current pulses of fixed intensity were calculated within the same subcellular regions identified by the functional mask after exposure to the experimental treatment. […]

HeLa cells [2] = test: Optical detection of changes in membrane conductance induced by aspecific permeabilization (fast-VSD, electric current pulses, internal control); type: cell-based; conditions: measures up to four minutes after administration, conductance normalised to value at t=0
Experimental: as §1, §2, §3, §4

Row | Substance | Fast-VSD fluorescence variation during unipolar square pulse (HeLa cells [1]) | effect on membrane conductance (HeLa cells [2]; 0.05% volume) | effect on membrane conductance (HeLa cells [2]; 0.5% volume)
1 | streptolysin-O: bacterial protein able to insert into the eukaryotic plasma membrane where it forms a non selective ionic channel | clear reduction in the fluorescence variation | – | –
2 | triton X-100 | – | negligible effect | marked drop
